Activity calls are given as the source filed them. No cut-off for these calls is given here.
Experiments:
[1] = Toxicity in C57BL/6 mouse implanted with mouse LLC cells assessed as change in body weight at 100 to 200 mg/kg, po bid treated for 21 days; assay type: organism-based, Lewis lung carcinoma; conditions: in vivo, 504 h, dose 100-200 mg/kg, time 21 day
[2] = target: T1, Indoleamine 2,3-dioxygenase 1 (Homo sapiens, UniProt P14902); test: Inhibition of human recombinant IDO1 assessed as reduction in N-formylkynurenine formation using L-tryptophan as substrate preincubated for 30 mins followed by substrate addition and measured after 20 mins by SpectraMax microplate reader analysis
[3] = target: T1, Indoleamine 2,3-dioxygenase 1; test: Inhibition of IDO1 in IFN-gamma-induced human HeLa cells assessed as reduction in N-formylkynurenine formation using L-tryptophan as substrate preincubated for 24 hrs followed by substrate addition and measured after 30 mins by SpectraMax microplate reader analysis; assay type: cell-based
[4] = target: T2, Indoleamine 2,3-dioxygenase 2 (Homo sapiens) (UniProt Q6ZQW0); test: Inhibition of human recombinant IDO2 assessed as reduction in N-formylkynurenine formation using L-tryptophan as substrate at 1 uM preincubated for 30 mins followed by substrate addition and measured after 20 mins by SpectraMax microplate reader analysis; conditions: time 50.0 min
T2 sequence (whole entry): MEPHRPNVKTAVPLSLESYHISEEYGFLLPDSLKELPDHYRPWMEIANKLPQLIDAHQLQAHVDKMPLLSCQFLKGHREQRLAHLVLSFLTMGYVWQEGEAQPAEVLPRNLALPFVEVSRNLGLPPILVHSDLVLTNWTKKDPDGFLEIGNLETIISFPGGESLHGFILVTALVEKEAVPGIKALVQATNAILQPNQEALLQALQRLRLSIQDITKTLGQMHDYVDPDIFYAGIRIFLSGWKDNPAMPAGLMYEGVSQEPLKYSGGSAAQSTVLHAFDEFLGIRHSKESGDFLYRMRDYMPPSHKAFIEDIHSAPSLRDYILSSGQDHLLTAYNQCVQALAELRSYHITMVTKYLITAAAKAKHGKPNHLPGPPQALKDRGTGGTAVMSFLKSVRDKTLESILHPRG

[5] = target: Tryptophan 2,3-dioxygenase (Homo sapiens) (UniProt P48775); test: Inhibition of human recombinant TDO assessed as reduction in N-formylkynurenine formation using L-tryptophan as substrate at 1 uM preincubated for 30 mins followed by substrate addition and measured after 20 mins by SpectraMax microplate reader analysis; conditions: time 50.0 min
[6] = Apparent permeability of the compound across apical to basolateral side in dog MDCK-II cells measured for 2 hrs by LC-MS/MS analysis; assay type: ADME, cell-based, Canis lupus familiaris
[7] = Apparent permeability of the compound across basolateral to apical side in dog MDCKII cells measured for 2 hrs by LC-MS/MS analysis; assay type: ADME, cell-based, Canis lupus familiaris, MDCK-II; conditions: MDCK
[8] = AUC (0 to t) in Sprague-Dawley rat at 25 mg/kg, po by LC-MS/MS analysis; assay type: ADME, organism-based; set-up: dose 25 mg/kg, route po; conditions: in vivo
[9] = AUC (0 to infinity) in Sprague-Dawley rat at 25 mg/kg, po by LC-MS/MS analysis; assay type: ADME, organism-based; set-up: dose 25 mg/kg, route po; conditions: in vivo
[10] = Tmax in Sprague-Dawley rat at 25 mg/kg, po by LC-MS/MS analysis; assay type: ADME, organism-based; conditions: in vivo
[11] = Cmax in Sprague-Dawley rat at 25 mg/kg, po by LC-MS/MS analysis; assay type: ADME, organism-based; set-up: dose 25 mg/kg, route po; conditions: in vivo
[12] = Half life in Sprague-Dawley rat at 25 mg/kg, po by LC-MS/MS analysis; assay type: ADME, organism-based; conditions: in vivo
[13] = Oral bioavailability in Sprague-Dawley rat at 25 mg/kg by LC-MS/MS analysis; assay type: ADME, organism-based; conditions: in vivo
[14] = AUC (0 to t) in Sprague-Dawley rat at 5 mg/kg, iv by LC-MS/MS analysis; assay type: ADME, organism-based; set-up: dose 5 mg/kg, route iv; conditions: in vivo
[15] = AUC (0 to infinity) in Sprague-Dawley rat at 5 mg/kg, iv by LC-MS/MS analysis; assay type: ADME, organism-based; set-up: dose 5 mg/kg, route iv; conditions: in vivo
[16] = Tmax in Sprague-Dawley rat at 5 mg/kg, iv by LC-MS/MS analysis; assay type: ADME, organism-based; conditions: in vivo
[17] = Cmax in Sprague-Dawley rat at 5 mg/kg, iv by LC-MS/MS analysis; assay type: ADME, organism-based; set-up: dose 5 mg/kg, route iv; conditions: in vivo
[18] = Half life in Sprague-Dawley rat at 5 mg/kg, iv by LC-MS/MS analysis; assay type: ADME, organism-based; conditions: in vivo
[19] = Volume of distribution in Sprague-Dawley rat at 5 mg/kg, iv by LC-MS/MS analysis; assay type: ADME, organism-based; conditions: in vivo
[20] = Plasma clearance in Sprague-Dawley rat at 5 mg/kg, iv by LC-MS/MS analysis; assay type: ADME, organism-based
[21] = Anti-tumor efficacy against mouse LLC cells implanted in C57BL/6 mouse assessed as tumor growth inhibition at 200 mg/kg, po bid treated for 21 days relative to control; assay type: functional; conditions: Lewis lung carcinoma, 504 h, time 21 day, read-out: TGI
[22] = Anti-tumor efficacy against mouse LLC cells implanted in C57BL/6 mouse assessed as tumor growth inhibition at 100 mg/kg, po bid treated for 21 days relative to control; assay type: functional; conditions: Lewis lung carcinoma, 504 h, time 21 day, read-out: TGI
[23] = Toxicity in C57BL/6 mouse implanted with mouse LLC cells assessed as mortality at 100 to 200 mg/kg, po bid treated for 21 days; assay type: organism-based, Lewis lung carcinoma; conditions: in vivo, 504 h, dose 100-200 mg/kg, time 21 day
[24] = Toxicity in C57BL/6 mouse implanted with mouse LLC cells assessed as pathological changes in heart at 100 to 200 mg/kg, po bid treated for 21 days by H and E staining assay; assay type: organism-based, Lewis lung carcinoma; conditions: in vivo, 504 h, dose 100-200 mg/kg, time 21 day
[25] = Toxicity in C57BL/6 mouse implanted with mouse LLC cells assessed as pathological changes in liver at 100 to 200 mg/kg, po bid treated for 21 days by H and E staining assay; assay type: organism-based, Lewis lung carcinoma; conditions: in vivo, 504 h, dose 100-200 mg/kg, time 21 day
[26] = Toxicity in C57BL/6 mouse implanted with mouse LLC cells assessed as pathological changes in spleen at 100 to 200 mg/kg, po bid treated for 21 days by H and E staining assay; assay type: organism-based, Lewis lung carcinoma; conditions: in vivo, 504 h, dose 100-200 mg/kg, time 21 day
[27] = Toxicity in C57BL/6 mouse implanted with mouse LLC cells assessed as pathological changes in lung at 100 to 200 mg/kg, po bid treated for 21 days by H and E staining assay; assay type: organism-based, Lewis lung carcinoma; conditions: in vivo, 504 h, dose 100-200 mg/kg, time 21 day
[28] = Toxicity in C57BL/6 mouse implanted with mouse LLC cells assessed as pathological changes in kidney at 100 to 200 mg/kg, po bid treated for 21 days by H and E staining assay; assay type: organism-based, Lewis lung carcinoma; conditions: in vivo, 504 h, dose 100-200 mg/kg, time 21 day
[29] = Toxicity in C57BL/6 mouse implanted with mouse LLC cells assessed as liver function by measuring change in total protein level at 100 to 200 mg/kg, po bid treated for 21 days […]; assay type: organism-based, Lewis lung carcinoma; conditions: in vivo, 504 h, dose 100-200 mg/kg, time 21 day
[30] = Toxicity in C57BL/6 mouse implanted with mouse LLC cells assessed as liver function by measuring change in AST level at 100 to 200 mg/kg, po bid treated for 21 days […]; assay type: organism-based, Lewis lung carcinoma; conditions: in vivo, 504 h, dose 100-200 mg/kg, time 21 day
[31] = Toxicity in C57BL/6 mouse implanted with mouse LLC cells assessed as liver function by measuring change in ALT level at 100 to 200 mg/kg, po bid treated for 21 days […]; assay type: organism-based, Lewis lung carcinoma; conditions: in vivo, 504 h, dose 100-200 mg/kg, time 21 day
[32] = Toxicity in C57BL/6 mouse implanted with mouse LLC cells assessed as kidney function by measuring change in BUN level at 100 to 200 mg/kg, po bid treated for 21 days […]; assay type: organism-based, Lewis lung carcinoma; conditions: in vivo, 504 h, dose 100-200 mg/kg, time 21 day
[33] = test system: HeLa; test: cells; conditions: Homo sapiens, 24 h
[34] = test system: HCT-116; test: cells; conditions: Homo sapiens, HCT-116, 24 h
[35] = test system: CT26; test: cells; conditions: Mus musculus, CT26, 24 h
[36] = cells; conditions: Mus musculus, Lung cancer cell line, 24 h
[37] = in vitro; conditions: dog, MDCK

T1 sequence (P14902 whole entry): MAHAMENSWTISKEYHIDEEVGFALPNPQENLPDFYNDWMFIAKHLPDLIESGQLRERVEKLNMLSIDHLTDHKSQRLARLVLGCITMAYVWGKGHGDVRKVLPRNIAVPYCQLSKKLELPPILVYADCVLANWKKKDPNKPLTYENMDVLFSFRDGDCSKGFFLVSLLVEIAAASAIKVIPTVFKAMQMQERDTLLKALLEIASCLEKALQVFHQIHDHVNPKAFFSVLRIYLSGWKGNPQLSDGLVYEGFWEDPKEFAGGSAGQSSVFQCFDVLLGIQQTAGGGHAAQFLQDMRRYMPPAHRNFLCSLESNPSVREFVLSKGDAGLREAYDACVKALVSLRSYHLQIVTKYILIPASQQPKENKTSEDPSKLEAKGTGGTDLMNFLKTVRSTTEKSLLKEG
Tryptophan 2,3-dioxygenase (Homo sapiens), sequence (P48775 whole entry, looked up): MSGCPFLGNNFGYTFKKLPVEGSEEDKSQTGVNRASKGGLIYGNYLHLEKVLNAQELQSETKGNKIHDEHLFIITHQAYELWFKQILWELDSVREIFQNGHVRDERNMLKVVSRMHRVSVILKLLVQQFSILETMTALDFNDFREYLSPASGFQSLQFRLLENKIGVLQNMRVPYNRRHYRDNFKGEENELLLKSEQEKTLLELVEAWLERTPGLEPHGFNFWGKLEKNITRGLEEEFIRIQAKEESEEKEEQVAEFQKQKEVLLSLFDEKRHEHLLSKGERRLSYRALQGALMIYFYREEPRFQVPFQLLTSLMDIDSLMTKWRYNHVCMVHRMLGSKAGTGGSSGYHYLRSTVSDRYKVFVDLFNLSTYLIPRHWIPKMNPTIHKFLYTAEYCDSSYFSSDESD

In the case of `CCNC(=O)Nc1nonc1/C(=N/O)Nc1ccc(F)c(Br)c1`, the Activity [1] is reported as “Non-Toxic”, the IC50 [2] is reported as 0.0674 µM and the IC50 [3] is reported as 0.0176 µM. For the same molecule, the inhibition [4] was “inactive”, the inhibition [5] was “inactive” and the Papp A→B at 2 h [6] was 38.6 ×10⁻⁶ cm/s. It also gave a Papp B→A at 2 h [7] of 22.6 ×10⁻⁶ cm/s, an AUC(0-t) [8] of 2220 ng·h/mL and an AUC(0-inf) [9] of 2250 ng·h/mL. For the same molecule, the Tmax [10] was 1 h, the Cmax [11] was 1690 ng/mL and the half-life [12] was 1.31 h. The bioavailability [13] was 16.8%, the AUC(0-t) [14] was 2640 ng·h/mL and the AUC(0-inf) [15] was 2690 ng·h/mL. For the same molecule, the Tmax [16] was 1.98 min, the Cmax [17] was 10000 ng/mL and the half-life [18] was 1.62 h. It also gave a Vd [19] of 4.01 L/kg, a clearance [20] of 32.3 mL/min/kg and an inhibition in vivo at 200 mg/kg [21] of 53.1%. For the same molecule, the inhibition in vivo at 100 mg/kg [22] was 41.5%, the Activity [23] was “Non-Toxic” and the Activity [24] was “Non-Toxic”. The Activity [25] was “Non-Toxic”, the Activity [26] was “Non-Toxic” and the Activity [27] was “Non-Toxic”. For the same molecule, the Activity [28] was “Non-Toxic”, the Activity [29] was “Non-Toxic” and the Activity [30] was “Non-Toxic”. The Activity [31] was “Non-Toxic”, the Activity [32] was “Non-Toxic” and the IC50 [33] was 46.1 µM. The IC50 [34] was 19.6 µM, the IC50 [35] was 34.9 µM and the IC50 [36] was > 50 µM. The efflux ratio at 2 h [37] was 0.58.

Reference: ChEMBL document CHEMBL5385895, “Design, synthesis, biological evaluation of urea substituted 1,2,5-oxadiazole-3-carboximidamides as novel indoleamine 2,3-dioxygenase-1 (IDO1) inhibitors” (Eur J Med Chem, 2023)
